The data set can be described thus: Evaluation of appearance (Test Example 1). Format: physicochemical. The note with it: allowed to stand, about 1 hour after production; transparent / separated / cloudy. The protocol:
After producing the pharmaceutical compositions and the self-emulsifying compositions of Reference Examples by the production methods as described above, the compositions were allowed to stand, and after about 1 hour, their appearance was evaluated. The composition was evaluated “transparent” when the composition was homogeneous due to the good compatibility. The composition was evaluated “separated” when the separation was observed and “cloudy” when opacity was observed.

This passage reports Appearance results from patent US20180015038A1, “OMEGA-3 FATTY ACID SELF-EMULSIFYING COMPOSITION” (MOCHIDA PHARMACEUTICAL CO., LTD., priority 2015, published 2018).

Structures are written as SMILES.

As for `CC(C)c1c(C(=O)Nc2ccccc2)c(-c2ccccc2)c(-c2ccc(F)cc2)n1CC[C@@H](O)C[C@@H](O)CC(=O)[O-].CC(C)c1c(C(=O)Nc2ccccc2)c(-c2ccccc2)c(-c2ccc(F)cc2)n1CC[C@@H](O)C[C@@H](O)CC(=O)[O-].[Ca+2]` [atorvastatin calcium], the Appearance entry is “good appearance was not realized”.
